Active and inactive are the calls of the source. The calls are words filed in the database; no cut-off is given here.

Series [1] concerns the target T1, Stimulator of interferon genes protein (Mus musculus, UniProt Q3TBT3).
T1 sequence (Q3TBT3 whole entry): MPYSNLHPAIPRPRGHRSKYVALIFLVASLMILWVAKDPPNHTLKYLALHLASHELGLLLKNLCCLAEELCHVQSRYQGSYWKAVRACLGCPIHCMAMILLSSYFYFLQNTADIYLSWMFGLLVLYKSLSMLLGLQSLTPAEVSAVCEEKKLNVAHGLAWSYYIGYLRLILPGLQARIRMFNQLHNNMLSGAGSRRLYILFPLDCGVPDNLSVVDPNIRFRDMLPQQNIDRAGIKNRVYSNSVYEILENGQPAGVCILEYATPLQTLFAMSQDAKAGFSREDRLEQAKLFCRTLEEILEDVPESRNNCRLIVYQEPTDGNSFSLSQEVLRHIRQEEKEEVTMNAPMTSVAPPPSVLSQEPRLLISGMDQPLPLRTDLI
The series can be described thus: Inhibition of cGAMP-induced mouse STING transfected in human THP-1 cells preincubated with compound for 6 hrs followed by cGAMP addition and measured after 18 hrs by QUANTI-Luc based microplate reader analysis. The class given is cell-based.

In series [2] the target is T2, Stimulator of interferon genes protein (Mus musculus) (UniProt Q3TBT3).
T2 sequence (whole entry): T1 sequence (Q3TBT3 whole entry)
In words: In vivo inhibition of cGAMP-induced STING activation in autoimmune disease female C57BL/6 mouse model assessed as decrease in cGAMP-induced serum CXCL-10 level at 10 mg/kg, sc pretreated with compound for 2 hrs followed by cGAMP addition and measured after 3 hrs by ELISA. The class given is functional, organism-based. A general note: ELISA stands for enzyme-linked immunosorbent assay.

For series [3], the target named is T3, Stimulator of interferon genes protein (Homo sapiens, UniProt Q86WV6, G230A/R293Q/R71H). The series can be described thus: Inhibition of cGAMP-induced STING HAQ mutant transfected in human THP1-Blue ISG cells preincubated with compound for 6 hrs followed by cGAMP addition and measured after 18 hrs by QUANTI-Blue based microplate reader analysis. The class given is cell-based.
T3 sequence (Q86WV6 whole entry R71H/G230A/R293Q): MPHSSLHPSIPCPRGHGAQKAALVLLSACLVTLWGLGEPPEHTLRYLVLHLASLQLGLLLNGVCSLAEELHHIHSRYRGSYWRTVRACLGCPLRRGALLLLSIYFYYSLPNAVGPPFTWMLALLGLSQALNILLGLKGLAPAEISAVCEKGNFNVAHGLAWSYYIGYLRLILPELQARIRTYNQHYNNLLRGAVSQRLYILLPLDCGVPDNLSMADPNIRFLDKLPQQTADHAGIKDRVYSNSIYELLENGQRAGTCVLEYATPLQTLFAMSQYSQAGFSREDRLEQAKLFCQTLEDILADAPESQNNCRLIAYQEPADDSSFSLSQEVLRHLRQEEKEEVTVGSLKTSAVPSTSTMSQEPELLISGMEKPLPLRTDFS

The target of series [4] is T4, Stimulator of interferon genes protein (Homo sapiens, UniProt Q86WV6). In words: Inhibition of cGAMP-induced STING S154 mutant transfected in human THP-1 cells preincubated with compound for 6 hrs followed by cGAMP addition and measured after 18 hrs by QUANTI-Luc based microplate reader analysis. The class given is cell-based.
Target sequence in this assay (Q86WV6 whole entry, looked up, change not shown): as the sequence (Q86WV6 whole entry R71H/G230A/R293Q) above, with H71R, A230G, Q293R counted along it
Series [5] has as its target T4, Stimulator of interferon genes protein. The series can be described thus: Inhibition of cGAMP-induced STING R232 mutant transfected human THP-1 cells preincubated with compound for 6 hrs followed by cGAMP addition and measured after 18 hrs by QUANTI-Luc based microplate reader analysis. The class given is cell-based.
Target sequence in this assay (Q86WV6 whole entry, looked up, change not shown): as the sequence (Q86WV6 whole entry R71H/G230A/R293Q) above, with H71R, A230G, Q293R counted along it
The nature of series [6]: Metabolic stability in human plasma assessed as half life in presence of NADPH by LC-MS/MS analysis. The series is classed as ADME, cell-free.
The target in series [7] is T4, Stimulator of interferon genes protein. In words: Inhibition of STING in human THP-1 cells assessed as inhibition of cGAMP-induced IFN-beta release at 0.05 to 0.5 uM pretreated with compound for 6 hrs followed by cGAMP addition and measured after 18 hrs by ELISA. The series is classed as cell-based. The note with it: dose 0.05-0.5 µM, time 24.0 hrs.
Target sequence in this assay (Q86WV6 whole entry): as the sequence (Q86WV6 whole entry R71H/G230A/R293Q) above, with H71R, A230G, Q293R counted along it
The nature of series [8]: Metabolic stability in human liver microsomes assessed as half life at 10 uM in presence of NADPH by LC-MS/MS analysis. The series is classed as ADME, Microsome.
Series [9] addresses T2, Stimulator of interferon genes protein (Mus musculus). In words: Inhibition of STING in mouse BMDM cells assessed as inhibition of cGAMP-induced CXCL-10 release at 0.05 to 0.5 uM pretreated with compound for 6 hrs followed by cGAMP addition and measured after 18 hrs by ELISA. Particulars: dose 0.05-0.5 µM, time 24.0 hrs. The class given is cell-based.
A short description of series [10]: Cytotoxicity against human THP1-Blue ISG cells assessed as inhibition of cell growth at 10 uM incubated for 24 hrs by MTS assay relative to control. The class given is toxicity, cell-based. In general terms: Tetrazolium assays rely on reduction of a dye to a coloured formazan, in cell work by metabolically active cells.
The target of series [11] is T2, Stimulator of interferon genes protein (Mus musculus). In words: Inhibition of STING in mouse BMDM cells assessed as inhibition of cGAMP-induced IFN-beta release at 0.05 to 0.5 uM pretreated with compound for 6 hrs followed by cGAMP addition and measured after 18 hrs by ELISA. The class given is cell-based. Particulars: dose 0.05-0.5 µM, time 24.0 hrs.
For series [12], the target named is T4, Stimulator of interferon genes protein. In words: Inhibition of STING activation in human THP1-Blue ISG cells assessed as decrease in cGAMP-induced STING phosphorylation at 0.1 to 1 uM preincubated with compound for 6 hrs followed by cGAMP addition and measured after 3 hrs by Western blotting analysis. The class given is cell-based. The note with it: dose 0.1-1 µM, time 9.0 hrs. A general note: A western blot detects proteins with antibodies after separation by electrophoresis.
Target sequence in this assay (Q86WV6 whole entry): as the sequence (Q86WV6 whole entry R71H/G230A/R293Q) above, with H71R, A230G, Q293R counted along it

The target is the same in series [13]. The series can be described thus: Inhibition of STING activation in human THP1-Blue ISG cells assessed as decrease in cGAMP-induced IRF3 phosphorylation at 0.1 to 1 uM preincubated with compound for 6 hrs followed by cGAMP addition and measured after 3 hrs by Western blotting analysis. The series is classed as cell-based. The note with it: dose 0.1-1 µM, time 9.0 hrs.
Target sequence in this assay (Q86WV6 whole entry): as the sequence (Q86WV6 whole entry R71H/G230A/R293Q) above, with H71R, A230G, Q293R counted along it

Series [14] can be described thus: Metabolic stability in mouse liver microsomes assessed as half life at 10 uM in presence of NADPH by LC-MS/MS analysis. The series is classed as ADME, Microsome.
Series [15] has as its target T2, Stimulator of interferon genes protein (Mus musculus). In words: In vivo inhibition of cGAMP-induced STING activation in autoimmune disease female C57BL/6 mouse model assessed as decrease in cGAMP-induced serum INF-beta level at 10 mg/kg, sc pretreated with compound for 2 hrs followed by cGAMP addition and measured after 3 hrs by ELISA. The series is classed as functional, organism-based.

In series [16] the target is T3, Stimulator of interferon genes protein. The series can be described thus: Inhibition of diABZI-induced STING HAQ mutant transfected in human THP1-Blue ISG cells preincubated with compound for 6 hrs followed by diABZI addition and measured after 18 hrs by QUANTI-Blue based microplate reader analysis. The series is classed as cell-based.
Series [17] in a line: Cmax in mouse at 20 mg/kg, po by LC-MS/MS analysis. Particulars: in vivo, read-out: Cmax. The class given is ADME, organism-based.
A short description of series [18]: Metabolic stability in mouse plasma assessed as half life in presence of NADPH by LC-MS/MS analysis. The series is classed as ADME, cell-free.

What is called IC50 is the concentration that gives 50% inhibition. The inhibition is the relative decrease from the control value, in per cent. By half-life is commonly meant how long it takes for the measured level to halve. As a reminder, the Cmax is the peak of the concentration-time curve. As to `CC(C)(C)c1ccc(N2C(=O)c3ccccc3C(C(N)=O)C2c2cc3cc(-c4ccc(C(=O)Nc5ccc(O)c(NS(C)(=O)=O)c5)cc4)ccc3o2)cc1Cl` (stereo not drawn), the IC50 in [1] was found to be 20 nM; in [3], 100 nM; in [4] it was 210 nM; in series [5], 30 nM; in [16], 110 nM. For the same molecule, the inhibition entry in [2], in [7], in series [9], in series [11], in [12] and in series [13] was “Active” in each case. For the same molecule, in [15], the inhibition result is “Active”. Also, the half-life in series [6] is more than 4 h. In addition, the half-life at 10 µM in series [8] and in series [14] was more than 1 h throughout. Besides, the inhibition at 24 h, 10 µM in [10] is 36.5%. Moreover, in series [17], the Cmax amounted to 200 nM.

With `CCS(=O)(=O)Nc1cc(NC(=O)c2ccc(-c3ccc4oc(C5C(C(N)=O)c6ccccc6C(=O)N5c5ccc(C(C)(C)C)c(Cl)c5)cc4c3)cc2)ccc1O` (stereo not drawn), in series [18], the half-life was more than 4 h. The concentration for half-maximal inhibition (IC50) in [3] is 200 nM. For the same molecule, the inhibition at 24 h, 10 µM in series [10] is 11.1%.

In the case of `COc1ccc2c(c1)C(=O)N(c1ccc(C(C)(C)C)c(Cl)c1)C(c1cc3cc(-c4ccc(C(=O)Nc5ccc(O)c(NS(C)(=O)=O)c5)cc4)ccc3o1)C2C(N)=O` (stereo not drawn), the half-life in series [18] and in series [6] was more than 4 h in each case. Besides, the half-maximal inhibitory concentration (IC50) in series [1] came out at 30 nM; in series [3] it was 80 nM; in [4] it was 260 nM; in series [5], 30 nM; in series [16], 80 nM. Besides, the inhibition result in series [2], in series [7], in series [9], in [11], in [12] and in series [13] was “Active” each time. The inhibition result in series [15] was “Active”. For the same molecule, the half-life at 10 µM in series [8] and in series [14] was more than 1 h in each case. Besides, in series [10], the inhibition at 24 h, 10 µM was determined as 37.3%. Also, in series [17], the Cmax was 200 nM.
